Values joined by “and” are separate entries in the source; they are usually repeats but may differ in a detail not shown here. Identical values can stand only once.
Test: mn = molality of the nth substance listed, in mol/kg
Details: 101 kPa, Liquid; for electrical conductivity: Alternating current cell with electrodes; for mass density: Pycnometric method

C[C@H](N)C(=O)N[C@@H](CCC(N)=O)C(=O)O [L-alanyl-L-glutamine] + O
electrical conductivity [S/m]
Details | 293.15 K | 298.15 K | 303.15 K | 308.15 K | 313.15 K
m1 = 0.05 | 0.0034 | 0.00364 | 0.00391 | 0.00427 | 0.00463
m1 = 0.1 | 0.00555 | 0.00599 | 0.00648 | 0.00707 | 0.00792
m1 = 0.15 | 0.00766 | 0.0084 | 0.009 | 0.00985 | 0.0112
m1 = 0.2 | 0.0107 | 0.0115 | 0.0124 | 0.0138 | 0.0153

CC(C)[C@H](NC(=O)CN)C(=O)O [glycyl-L-valine] + O
electrical conductivity [S/m]
Details | 293.15 K | 298.15 K | 303.15 K | 308.15 K | 313.15 K
m1 = 0.05 | 0.00323 | 0.00347 | 0.00374 | 0.00407 | 0.00456
m1 = 0.1 | 0.00535 | 0.00582 | 0.00636 | 0.00705 | 0.00783
m1 = 0.15 | 0.00742 | 0.00811 | 0.00891 | 0.00989 | 0.011
m1 = 0.2 | 0.0104 | 0.0114 | 0.0124 | 0.0137 | 0.0152

O=S(=O)([O-])C(F)(F)C(F)(F)C(F)(F)C(F)(F)C(F)(F)C(F)(F)C(F)(F)C(F)(F)F.[K+] [potassium perfluorooctanesulfonate] + O
Details | electrical conductivity, 293.15 K [S/m] | electrical conductivity, 298.15 K [S/m] | electrical conductivity, 303.15 K [S/m] | electrical conductivity, 308.15 K [S/m] | electrical conductivity, 313.15 K [S/m] | mass density, 288.15 K [kg/m3] | mass density, 293.15 K [kg/m3] | mass density, 298.15 K | mass density, 303.15 K
m1 = 0.0003 | – | 0.00301 | 0.00325 | 0.00359 | 0.00392 | – | – | – | –
m1 = 0.00033 | 0.00284 | 0.00326 | 0.00353 | 0.0039 | 0.00427 | – | – | – | –
m1 = 0.00036 | 0.00306 | 0.00352 | 0.00381 | 0.0042 | 0.0046 | – | – | – | –
m1 = 0.00039 | 0.00326 | 0.00376 | 0.00407 | 0.00449 | 0.00492 | – | – | – | –
m1 = 0.00041 | 0.00347 | 0.00399 | 0.00432 | 0.00478 | 0.00522 | – | – | – | –
m1 = 0.00044 | 0.00366 | 0.00421 | 0.00456 | 0.00504 | 0.0055 | – | – | – | –
m1 = 0.00046 | 0.00384 | 0.00444 | 0.00481 | 0.00531 | 0.0058 | – | – | – | –
m1 = 0.00049 | 0.00404 | 0.00466 | 0.00506 | 0.0056 | 0.0061 | – | – | – | –
m1 = 0.0005 | – | – | – | – | – | 999.3 | 998.3 | 997.1 kg/m3 and 997.2 kg/m3 | 995.7 kg/m3 and 995.8 kg/m3
m1 = 0.00052 | 0.00427 | 0.00492 | 0.00534 | 0.00592 | 0.00644 | – | – | – | –
m1 = 0.00054 | 0.00447 | 0.00516 | 0.00559 | 0.00621 | 0.00673 | – | – | – | –
m1 = 0.00057 | 0.00468 | 0.00541 | 0.00586 | 0.0065 | 0.00706 | – | – | – | –
m1 = 0.0006 | 0.0049 | 0.00564 | 0.00612 | 0.00679 | 0.00737 | – | – | – | –
m1 = 0.00062 | 0.0051 | 0.00589 | 0.00638 | 0.00709 | 0.00769 | – | – | – | –
m1 = 0.00066 | 0.00534 | 0.00616 | 0.00667 | 0.00742 | 0.00805 | – | – | – | –
m1 = 0.00069 | 0.00559 | 0.00643 | 0.00697 | 0.00775 | 0.00843 | – | – | – | –
m1 = 0.00071 | 0.0058 | 0.00669 | 0.00724 | 0.00806 | 0.00875 | – | – | – | –
m1 = 0.00075 | – | 0.00698 | 0.00756 | 0.00841 | 0.00914 | – | – | – | –
m1 = 0.00078 | – | 0.00721 | 0.00782 | 0.00871 | – | – | – | – | –

O=S(=O)([O-])C(F)(F)C(F)(F)C(F)(F)C(F)(F)F.[K+] [potassium perfluorobutanesulfonate] + O
Details | electrical conductivity, 293.15 K [S/m] | electrical conductivity, 298.15 K [S/m] | electrical conductivity, 303.15 K [S/m] | electrical conductivity, 308.15 K [S/m] | electrical conductivity, 313.15 K [S/m] | mass density, 288.15 K [kg/m3] | mass density, 293.15 K [kg/m3] | mass density, 298.15 K [kg/m3] | mass density, 303.15 K
m1 = 0.0003 | 0.00278 | 0.00312 | 0.00344 | 0.00378 | 0.00413 | – | – | – | –
m1 = 0.00054 | 0.00499 | 0.00562 | 0.00619 | 0.00681 | 0.00742 | – | – | – | –
m1 = 0.00087 | 0.00784 | 0.00882 | 0.00972 | 0.0107 | 0.0117 | – | – | – | –
m1 = 0.00125 | 0.0111 | 0.0125 | 0.0138 | 0.0152 | 0.0166 | – | – | – | –
m1 = 0.00164 | 0.0145 | 0.0163 | 0.018 | 0.0197 | – | – | – | – | –
m1 = 0.00207 | 0.0181 | 0.0203 | 0.0226 | 0.0248 | 0.0271 | – | – | – | –
m1 = 0.00259 | 0.0227 | 0.0253 | 0.0279 | 0.0307 | 0.0335 | – | – | – | –
m1 = 0.00315 | 0.0273 | 0.0304 | 0.0336 | 0.0369 | 0.0403 | – | – | – | –
m1 = 0.00374 | 0.0322 | 0.0357 | 0.0395 | 0.0434 | 0.0474 | – | – | – | –
m1 = 0.00437 | 0.0372 | 0.0415 | 0.0457 | 0.0504 | 0.0549 | – | – | – | –
m1 = 0.00501 | 0.0423 | 0.0471 | 0.0521 | 0.0572 | 0.0625 | – | – | – | –
m1 = 0.00571 | 0.0478 | 0.0532 | 0.0588 | 0.0646 | 0.0705 | – | – | – | –
m1 = 0.00646 | 0.0537 | 0.0596 | 0.0658 | 0.0725 | 0.0792 | – | – | – | –
m1 = 0.00723 | 0.0596 | 0.0662 | 0.0732 | 0.0805 | 0.0878 | – | – | – | –
m1 = 0.00809 | 0.0661 | 0.0734 | 0.081 | – | 0.0976 | – | – | – | –
m1 = 0.00904 | 0.0731 | 0.0814 | – | – | – | – | – | – | –
m1 = 0.04 | – | – | – | – | – | 1006.5 | 1005.6 | 1004.3 | 1002.7 kg/m3 and 1002.8 kg/m3

NCC(=O)N[C@@H](CCC(N)=O)C(=O)O [glycyl-l-glutamine] + O
electrical conductivity
Details | 293.15 K | 298.15 K | 303.15 K | 308.15 K | 313.15 K
m1 = 0.05 | 0.00342 S/m | 0.00366 S/m | 0.00392 S/m | 0.00428 S/m | 0.00464 S/m
m1 = 0.1 | 0.00556 S/m | 0.006 S/m | 0.00649 S/m | 0.00708 S/m | 0.00793 S/m and 0.00773 S/m
m1 = 0.15 | 0.00768 S/m | 0.00832 S/m | 0.00902 S/m | 0.00999 S/m | 0.0108 S/m and 0.0112 S/m
m1 = 0.2 | 0.0107 S/m | 0.0116 S/m | 0.0125 S/m | 0.0139 S/m | 0.0148 S/m and 0.0158 S/m

NCC(=O)NCC(=O)O [glycylglycine] + O
electrical conductivity [S/m]
Details | 293.15 K | 298.15 K | 303.15 K | 308.15 K | 313.15 K
m1 = 0.05 | 0.00328 | 0.00355 | 0.00385 | 0.00429 | 0.00474
m1 = 0.1 | 0.00543 | 0.00593 | 0.00652 | 0.00724 | 0.00805
m1 = 0.15 | 0.00745 | 0.00818 | 0.00904 | 0.0101 | 0.0113
m1 = 0.2 | 0.0106 | 0.0115 | 0.0125 | 0.014 | 0.0155

CC(C)C[C@H](NC(=O)CN)C(=O)O [glycyl-L-leucine] + O
electrical conductivity
Details | 293.15 K | 298.15 K | 303.15 K | 308.15 K | 313.15 K
m1 = 0.05 | 0.00321 S/m | 0.00345 S/m | 0.00373 S/m and 0.00372 S/m | 0.00406 S/m | 0.00455 S/m
m1 = 0.1 | 0.00533 S/m | 0.0058 S/m | 0.00634 S/m | 0.00703 S/m | 0.00781 S/m
m1 = 0.15 | 0.0074 S/m | 0.00809 S/m | 0.00889 S/m | 0.00987 S/m | 0.011 S/m
m1 = 0.2 | 0.0104 S/m | 0.0113 S/m | 0.0124 S/m | 0.0137 S/m | 0.0152 S/m

Reference: the NIST ThermoML archive (doi:10.1016/j.jct.2015.10.004)
